The values below come from patent US20120148680A1, “EYE CREAM AND PREPARATION METHOD” (MAYINGLONG PHARMACEUTICAL GROUP CO., LTD, priority 2010, published 2012).

This data set has as its system red blood cells. Description: Stimulation test, Red Blood Cell (RBC) test system, INVITTOX n° 37. The note with it: relative to SDS. The class given is cell-based. As for the experimental part: Experimental method: Refer to ECVAM DB-ALM: INVITTOX protocol; Red Blood Cell Test System INVITTOX n° 37, hereinafter referred to as RBC test system.
The basic principle of the RBC test system is to determine the damage on the cell membrane caused by chemicals and the change of cell membrane permeability resulted from it. The damage degree of the cell membrane, which is directly related to the stimulation of a product, is evaluated through determining the amount of hemoglobin leaked from red blood cells.
The absorbance of red blood cell suspension after exposure to the chemicals is determined by spectrophotometric method, then the hemolysis rate and HSO value (i.e. the concentration value of the test substance, 50% of red blood cells of which develop hemolysis) can be calculated. The HSO value and the results of two grading standards in Draize test, i.e. the maximum average Draize total score (MAS) and the 24 h after application and scores of composition parameters (cornea, conjunctiva and iris) thereof are subjected to correlation analysis to show good consistency. At the same concentration, the higher the hemolysis rate of the sample is, the stronger the stimulation of the sample is.
The stimulation ratio of each sample is as shown in the following table relative to SDS after the comparison of the SDS stimulation ratio: […]

As for `CCCCCCCCCCCCOS(=O)(=O)[O-].[Na+]` [SDS control substance, SDS], the Stimulation ratio is listed as 100%.
